Laboratory results as given in patent publication US20210299150A1, “AP39 IMPACT ON MITOCHONDRIA, METABOLISM, GENE TRANSCRIPTION REGULATION, CARDIOTOXICITY PROTECTION AND CANCER TREATMENT” (priority 2020, published 2021).

Tests used:
H9C2 cells [1] = experiment: Mitochondrial H2S levels (AzMAC) and morphology (mitotracker Red) in H9C2 cells; type: cell-based, Rat
Excerpt: Note that white arrow heads and yellow arrows compare and contrast no-H2S: fusion and H2S-presence: fission scenarios in the same image AP39 treatment lane.
Mitochondrial fission was correlated with H2S levels. To investigate the impact of Dox on mitochondrial biogenesis and mitochondrial H2S levels, H9C2 cells were used in combination with H2S sensitive dye AzMAC and mitotracker Red dye as reported previously^8. […] Further, H2S levels (yellow arrows) highly correlated with a dotted appearance of mitochondria, implying that H2S causes mitochondrial fission, which is a prerequisite for eliminating damaged mitochondria^49.

[2] = Glucose, glutamine and lactate in cell culture supernatants; type: cell-based
Description: Quantification of glutamine, glucose and lactate in the cell culture supernatants at 16 and 24 hrs. n=3; p<0.05 or 0.01 (2 symbols); * vs Cont; # vs Dox at 16 hrs; and $ vs Cont; ^ vs Dox at 24 hrs.
To this end, 13C-glucose flux/isotope tracing and quantified metabolites through GC-MS were examined at 16 hrs and 24 hrs after the treatments. Glucose, glutamine and lactate were also measured in supernatants at these time points. […] With the exception of glycolytic metabolites, the remaining metabolic pathways (poor labeling) were non-operational after Dox treatment (FIG. 10A).
However, AP39 treatments caused dominant effects in glucose utilization (1.5 fold increase vs Dox at 24 hrs) and lactate production. Such high lactate production is one of the main reasons behind the modest in vitro protective ability of AP39 against Dox (FIG. 5), which is in contrast to the in vivo scenario (FIGS. 3 and 4). Thus, metabolomics and transcriptomic approaches led to better understanding of the protective function of AP39.

H9C2 cells [3] = experiment: Mitochondrial ROS, MitoSox Red, H9C2; type: cell-based, Rat; details: H9C2, AP39 and Dox co-treatment
Description: AP39 treatment also ameliorated Dox toxicity in a model of Rat cardiomyoblast cell line, H9C2. […] There was a narrow window of protection, as 30 μM and 50 μm doses were not as strong as the 40 μM dose (FIGS. 5A and B) in conferring protection. […] Note that Dox caused an apoptotic phenotype in correlation with ROS levels (FIG. 5F, Dox lane). This in vitro AP39 protection is modest when compared to the in vivo scenario. This difference may be due to rapid clearance of toxic metabolites (for instance, higher lactate production, FIG. 10D) and better oxygen supply (AP39 stimulated OCR, FIG. 7C) in vivo and lack of such sophistication in vitro.

A549 lung cancer cells = experiment: Cell viability of A549 lung cancer cells; type: cell-based
Description: (§1) Methods for cell viability: Cells were plated in 96 wells/6 wells cell culture plates. After 24 hrs of plating, the treatments (added in the growth medium) were conducted. The following assays were performed after 24 hrs of the treatments (day 2). (FIGS. 15A, 17-20, 24-27)
(§2) MTT assay methods. For the MTT assay, […] of 5 mg/ml MTT-tetrazolium salts in PBS was added to each well containing the growth medium. After 3 hours of incubation, the medium was removed and the formazan crystals were dissolved by adding DMSO. The absorption of the formazan solution was measured using a spectrophotometer at a wavelength of 570 nm. FIGS. 15B, 21-22.
A549 lung cancer cells were exposed to control, AP39 (AP) at 40 or 60 μM, Doxorubicin at 2.5 or 20 μM, thiolactate at 10 mM, AP39 and Doxorubicin, AP39 and thiolactate, or Doxorubicin and Thiolactate. […] FIGS. 19 and 21.

DIC in mouse models = experiment: Dox-induced cardiotoxicity (DIC) in mouse models: heart weight, echocardiography, histology; type: in vivo
Description: AP39 treatment ameliorated DIC in mouse models in a dose dependent manner. DIC was induced by giving a single dose of Dox i.p. (FIG. 3A) as reported before^48. AP39 was given for six consecutive days starting with Dox treatment. two different doses of AP39 were tested.
AP39 ameliorated cardiac fibrosis in a dose dependent manner. […] It is possible that lower doses of AP39 might have induced favorable metabolic changes which are enough to improve heart function but not sufficient to protect from cardiac cell death after Dox. These findings needs to be confirmed in a larger study.

H1299 lung cancer cells = experiment: Cell viability of H1299 lung cancer cells; type: cell-based
Description: as §1, §2
H1299 lung cancer cells were exposed to control, AP39 (AP) at 40 or 60 μM, Doxorubicin at 2.5 or 20 μM, thiolactate at 10 mM, AP39 and Doxorubicin, AP39 and thiolactate, or Doxorubicin and Thiolactate. […] FIGS. 20-22.

hiPSC-CMs = experiment: DIC in hiPSC-CMs (Annexin V, MitoSox Red); type: cell-based, human
MCF7 breast cancer cells = experiment: Cell viability (MTT, crystal violet) of MCF7 breast cancer cells; type: cell-based
Description: as §1, §2
Crystal Violet (CV) assay. For the CV Staining assay, cells were stained with 0.5% crystal violet in 30% ethanol for 10 minutes at room temperature after removal of the medium. The cells were lysed in a 1% SDS (sodium dodecyl sulfate) solution. The absorbance of the solution was measured using a spectrophotometer at a wavelength of 595 nm. FIG. 27.
MCF7 breast cancer cells were exposed to control, AP39 (AP) at 40 or 60 μM, Doxorubicin at 2.5 or 20 μM, thiolactate at 10 mM, AP39 and Doxorubicin, AP39 and thiolactate, or Doxorubicin and Thiolactate. […] FIGS. 26-27.

[4] = Oxygen Consumption Rate (OCR); type: cell-based; details: AP39, not significantly different in the presence of Dox
Excerpt: AP39 enhanced AMPK activation (A and B) and produced shorter isoform of Opa1, i.e. no longer isoform of Opa1. Oxygen consumption rates (OCR) with different treatments. […] Note AMPK substrate ACC phosphorylation.
It is possible that AP39 relies mostly on increased energy efficiency rather than on improving OCR after Dox treatment.

[5] = system: Myc/Max-regulated transcripts; experiment: RNAseq analysis in H9C2 cell line; type: cell-based, Rat
Description: The coverage among groups are indicated.
Next, to interrogate mechanisms of AP39 protection against DIC, RNAseq analysis was performed. There was sufficient coverage of the whole transcriptome among the groups (FIG. 8A).

[6] = AP39 40 or 60 μM, thiolactate 10 mM, 24 hrs
[7] = combination with Doxorubicin 2.5 μM

O=C(CCCCCCCCC[P+](c1ccccc1)(c1ccccc1)c1ccccc1)Oc1ccc(-c2cc(=S)ss2)cc1.[Br-] [AP39]
Dox-mediated mitochondrial fusion (H9C2 cells [1]; H9C2, AP39 with Dox): reversed after AP39 treatment | mitochondrial H2S levels (AzMAC) (H9C2 cells [1]; H9C2, single agent vs control): H2S production enhancement | mitochondrial morphology (fission / fusion) (H9C2 cells [1]; H9C2, single agent vs control): increased mitochondrial fission | glutamine utilization (supernatants) ([2]; compared to control): suppressed glutamine utilization | lactate production ([2]; supernatants): potent inducer of lactate production | glucose utilization ([2]; supernatants, at 24 hrs): 1.5 fold increase vs Dox | ROS in mitochondria (MitoSox Red) (H9C2 cells [3]): significant amelioration of ROS in mitochondria | cell killing, agent alone (A549 lung cancer cells; [6]): able to kill lung cancer cells | potency of low doses of Doxorubicin (A549 lung cancer cells; [7]): able to increase the potency of low doses of Doxorubicin | heart weight decline seen during Dox treatment (DIC in mouse models; AP39 higher dose 0.642 mg/kg, six consecutive days, single dose of Dox i.p.): effective in countering heart weight decline | left ventricular dysfunction (echocardiography) (DIC in mouse models; both doses of AP39, six consecutive days, single dose of Dox i.p.): effective in ameliorating left ventricular dysfunction | Dox induced fibrosis and cell infiltration (histological sections) (DIC in mouse models; higher AP39 dose): prevented Dox induced fibrosis and cell infiltration | cardiac pathology (fibrosis, cell infiltration) (DIC in mouse models; lower AP39 dose): not cardiac pathology | cell killing, agent alone (H1299 lung cancer cells; [6]): able to kill lung cancer cells | potency of low doses of Doxorubicin (H1299 lung cancer cells; [7]): able to increase the potency of low doses of Doxorubicin | DIC in hiPSC-CMs (hiPSC-CMs; 4 μM AP39 with 7.5 μM Dox, 48 hrs): attenuated DIC | tolerance of hiPSC-CMs to AP39 (hiPSC-CMs; 40 μM AP39, compared with H9C2 cells): greater susceptibility | level of apoptosis (Annexin V) and mitochondrial ROS (MitoSox Red) (hiPSC-CMs; hiPSC-CMs, AP39 with Dox): attenuated with AP39 treatment | cell killing, agent alone (MCF7 breast cancer cells; [6]): able to kill breast cancer cells | potency of low doses of Doxorubicin (MCF7 breast cancer cells; [7]): able to increase the potency of low doses of Doxorubicin | Oxygen Consumption Rate (OCR) [4]: suppressed OCR | abnormal transcriptional changes induced after Dox treatment, global level (RNAseq) ([5]; H9C2, AP39+Dox): significantly reversed abnormal transcriptional changes | Myc transcription ([5]; H9C2, AP39 with Dox): restored Myc transcription
